These results are taken from paper PMC4880283, “Crystal Structures of Putative Sugar Kinases from Synechococcus Elongatus PCC 7942 and Arabidopsis Thaliana” (PLoS ONE, 2016).

Assay [1] concerns the target T1, SePSK (Synechococcus elongatus, UniProt Q31KC7).
T1 construct: gene PSK; full length (426 aa), pET28-a (Nco I/Xho I), C-terminal His6 tag kept, E. coli BL21(DE3)
As to the kind of experiment: ADP-Glo kinase assay. Format: biochemical. The following applies: 100 uM ATP, no sugar, 1 mM MgCl2, 20 mM HEPES pH 7.4, 298 K. A general note: In ADP-Glo the light output rises with the ADP produced.

Assay [2] concerns the target T2, AtXK-1 (Arabidopsis thaliana, UniProt Q8L794).
T2 construct: gene XK1; mature form (436 aa) without chloroplast transit peptide; forward primer encodes VMSGNKGT; pMCSG7, N-terminal His6 removed by TEV protease, E. coli BL21(DE3)
As to the kind of experiment: ADP-Glo kinase assay. It counts as biochemical. The following applies: 100 uM ATP, no sugar, 1 mM MgCl2, 20 mM HEPES pH 7.4, 298 K.

The target of assay [3] is T3, SePSK (Synechococcus elongatus, UniProt Q31KC7, T11A).
T3 construct: gene PSK; full length (426 aa), pET28-a (Nco I/Xho I), C-terminal His6 tag kept, E. coli BL21(DE3)
T3 sequence (Q31KC7 whole entry T11A): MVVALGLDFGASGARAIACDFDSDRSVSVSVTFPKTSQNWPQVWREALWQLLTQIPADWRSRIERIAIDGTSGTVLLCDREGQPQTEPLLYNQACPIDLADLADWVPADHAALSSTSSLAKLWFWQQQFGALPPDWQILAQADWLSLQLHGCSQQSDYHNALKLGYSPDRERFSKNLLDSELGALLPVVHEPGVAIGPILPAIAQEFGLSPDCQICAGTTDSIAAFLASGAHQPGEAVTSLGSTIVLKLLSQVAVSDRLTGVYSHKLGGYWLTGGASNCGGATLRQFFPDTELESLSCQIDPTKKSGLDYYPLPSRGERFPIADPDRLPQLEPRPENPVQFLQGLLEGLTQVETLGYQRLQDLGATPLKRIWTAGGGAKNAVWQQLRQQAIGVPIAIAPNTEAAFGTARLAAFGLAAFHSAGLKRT
Briefly: ADP-Glo kinase assay. It counts as biochemical. The conditions noted are these: 5 mM D-ribulose, 100 uM ATP, 1 mM MgCl2, 20 mM HEPES pH 7.4, 298 K; activity much lower than wild type.

Assay [4] addresses T4, SePSK (Synechococcus elongatus, UniProt Q31KC7, D8A).
T4 construct: gene PSK; full length (426 aa), pET28-a (Nco I/Xho I), C-terminal His6 tag kept, E. coli BL21(DE3)
As to the kind of experiment: ADP-Glo kinase assay. It counts as biochemical. The following applies: 5 mM D-ribulose, 100 uM ATP, 1 mM MgCl2, 20 mM HEPES pH 7.4, 298 K; activity much lower than wild type.

Assay [5] concerns the target T5, SePSK (Synechococcus elongatus, UniProt Q31KC7, D221A).
T5 construct: gene PSK; full length (426 aa), pET28-a (Nco I/Xho I), C-terminal His6 tag kept, E. coli BL21(DE3)
As to the kind of experiment: ADP-Glo kinase assay. The conditions noted are these: 5 mM D-ribulose, 100 uM ATP, 1 mM MgCl2, 20 mM HEPES pH 7.4, 298 K; activity much lower than wild type. It counts as biochemical.

Assay [6] deals with T4, SePSK. Briefly: surface plasmon resonance (single-cycle kinetics, CM5). The conditions noted are these: rate constant (off-rate), not an equilibrium Kd; 1:1 Langmuir fit; 20 mM HEPES pH 7.5, 100 mM NaCl; 298 K. It counts as binding. Background: In SPR one partner is held on a chip, and binding of the other changes the refractive index at the surface.
The target of assay [7] is T2, AtXK-1. Briefly: X-ray crystal structure (soak). Format: binding. The conditions noted are these: crystal soaked in 10 mM AMP-PNP, 20 mM MgCl2; ATP site in domain II.
Assay [8] has as its target T1, SePSK. Briefly: X-ray crystal structure, […] A (soak). The conditions noted are these: crystal soaked in 10 mM AMP-PNP, 20 mM MgCl2; ATP site in domain II. It counts as binding.

T1 sequence (Q31KC7 whole entry): as the sequence (Q31KC7 whole entry T11A) above, with A11T counted along it
T2 sequence (Q8L794 43-478): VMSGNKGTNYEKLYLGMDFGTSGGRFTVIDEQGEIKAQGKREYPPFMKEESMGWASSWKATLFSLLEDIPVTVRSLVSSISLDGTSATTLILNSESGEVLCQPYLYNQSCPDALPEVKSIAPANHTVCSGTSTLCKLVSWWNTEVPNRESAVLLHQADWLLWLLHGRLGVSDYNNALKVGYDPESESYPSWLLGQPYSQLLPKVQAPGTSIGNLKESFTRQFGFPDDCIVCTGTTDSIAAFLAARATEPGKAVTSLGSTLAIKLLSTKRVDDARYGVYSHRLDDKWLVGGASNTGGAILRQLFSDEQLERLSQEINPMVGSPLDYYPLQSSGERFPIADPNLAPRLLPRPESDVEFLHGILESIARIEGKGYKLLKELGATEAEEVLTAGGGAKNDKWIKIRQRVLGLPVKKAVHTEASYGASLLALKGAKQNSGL
T4 sequence (Q31KC7 whole entry D8A): as the sequence (Q31KC7 whole entry T11A) above, with D8A, A11T counted along it
T5 sequence (Q31KC7 whole entry D221A): as the sequence (Q31KC7 whole entry T11A) above, with A11T, D221A counted along it

Turning to `Nc1ncnc2c1ncn2[C@@H]1O[C@H](COP(=O)(O)OP(=O)(O)OP(=O)(O)O)[C@@H](O)[C@H]1O` [ATP], the ADP-Glo kinase assay result is “both SePSK and AtXK-1 exhibited ATP hydrolysis activity” on SePSK [1]; “both SePSK and AtXK-1 exhibited ATP hydrolysis activity” at AtXK-1 [2].
Take `O=C(CO)[C@H](O)[C@H](O)CO` [D-ribulose]: the ADP-Glo kinase assay result on SePSK [3], at SePSK [4] and on SePSK [5] was “all of these mutants exhibit much lower activity of ATP hydrolysis after adding D-ribulose” in each case. Moreover, at SePSK [6], the “Dissociation rate constant (koff)” value is recorded as 9 ms^-1.
Turning to `Nc1ncnc2c1ncn2[C@@H]1O[C@H](COP(=O)(O)OP(=O)(O)NP(=O)(O)O)[C@@H](O)[C@H]1O` [AMP-PNP], the “X-ray crystal structure (soak)” value on AtXK-1 [7] is “soaked the crystals of apo-SePSK and apo-AtXK-1 into the reservoir adding AMP-PNP”. The “X-ray crystal structure, 2.3 A (soak)” value at SePSK [8] is “one SePSK protein molecule is in an asymmetric unit with one AMP-PNP molecule”.
